Data published in patent US9957230B2, “Synergistic compositions” (Cadila Healthcare Limited, priority 2013, dated 2018).
Where “and” joins values, the source holds several entries; their conditions need not be identical. Equal values may be shown once. Where a name gives a salt, the structure may show the parent alone.

Columns and labels:
Type in all cases: in vivo
db/db mice [1] = assay: Oral glucose tolerance test in db/db mice (studies VII and VIII); conditions: for AUC Glucose: OGTT day 7, fasting, glucose load 2 gm/kg
Text: (§1) In this experiment, 49 db/db mice of 12-16 week were divided into 7 groups and as per their day 0 serum glucose levels. […] Detail treatments and routes of administrations were mentioned in Table no. 27. The treatment was given once daily for 7 days.
(§2) The blood was collected by retro-orbital sinus puncture method under light ether anesthesia on day 0 (pretreatment) and on day 6 (one hour after dose administration) for non-fasting glucose analysis and oral glucose tolerance test (OGTT) was performed on day 7 of the treatment in fasting condition. After blood collection serum was separated and analyzed glucose analysis using Spectra max and commercial diagnostic kits. The OGTT procedure followed is as given below—
Oral Glucose Tolerance Test (OGTT): One day before OGTT all animals were kept on overnight fasting and on the day of OGTT, day 7 of the treatment each animal was dosed with a single dose of vehicle/test compounds administered orally and 60-min post dosing blood was collected (0 min) and glucose load (2 gm/kg/10 ml) administered per orally. Blood was then collected at time points corresponding to 30, 60 and 120 min after glucose load administration. Serum was separated and analyzed for glucose using Spectra max and commercial diagnostic kits.
(§3) The calculation for antidiabetic activity i.e. effect on serum glucose and improvement in glucose Area Under Curve (AUC) was calculated using the excel sheet and Graph Pad Prism software. The day-0 and day-6 glucose values of vehicle control and treatment were considered for calculating the effect on serum glucose. The effect on glucose AUC was calculated using the OGTT glucose levels at different time points and the improvement in glucose AUC were the reduction in glucose AUC after the treatment during OGTT.

db/db mice [2] = assay: Antidiabetic activity with Exenatide or Glimepiride in db/db mice (studies VII and VIII): non-fasting serum glucose; conditions: for Serum Glucose (mg/dl) Day 0: Day 0 (pretreatment), male and female db/db mice; for Serum Glucose (mg/dl) Day 6: Day 6, one hour after dose, non-fasting; for % Change Day 6 vs Day 0: serum glucose
Text: The in-vivo efficacy for antidiabetic activity was done in male and female db/db mice of 12-16 weeks of age. Generally obese and diabetic animals are insulin resistant and have abnormalities in glucose and lipid metabolism. The development of diabetes and beta cell dysfunction in these animal models closely parallels the pathophysiology of the disease condition in humans. […] They progressively develop into insulinopenia with age, a feature commonly observed in last stage of type-2 diabetes, when blood sugar levels are insufficiently controlled. Therefore, this genetic model proves to be suitable for predicting the likely therapeutic benefit of novel euglycemic agents in human type-2 diabetes.
as §1, §2, §3

db/db mice [3] = assay: Oral glucose tolerance test in db/db mice (studies I and II); conditions: Compound (Ia) 0.1 mg/kg; for AUC Glucose: OGTT day 14, fasting, glucose load 2 gm/kg; for % improvement in AUC glucose vs control: OGTT after 14 days of treatment
Text: 8. […] 8. The treatment was given oral gavages once daily for 14 days.
(§4) The OGTT procedure followed is as given below—

[4] = system: high fat high cholesterol fed Syrian golden hamster; assay: Lipid lowering effects with Atorvastatin in HF-HC fructose diet Syrian golden hamsters (study V)
Text: (§5) The in-vivo efficacy was done in high fat high cholesterol fed Syrian golden hamster. It is an excellent model to investigate hepatic assembly and secretion of lipoprotein since its lipoprotein metabolism closely resembles that of humans as they have cholesteryl ester transfer protein (CETP) as like human. Feeding high fat high cholesterol diet to Syrian golden hamster causes hypercholesterolemia and hypertriglyceridemia which causes an increase in LDL levels and decrease in HDL-C/TC ratio.
In this experiment, 18 Syrian golden hamsters which were kept on high fat-high cholesterol (HF-HC) fructose diet were divided into 3 treatment groups and one group was on normal diet control which was NIN (National Institute of Nutrition, NIN diet) control, the treatment given was as per Table no. 1. […] 20. The treatment was given oral gavages once daily for 13 days.
Calculations of the % change in LDL-C levels, triglyceride and LDL-C/HDL-C ratio (Vs HF-HC fructose diet control) were performed using MS Excel.

db/db mice [5] = assay: Antidiabetic activity with Vildagliptin and Metformin in db/db mice (study IV): non-fasting serum glucose; conditions: Vildagliptin 1 mg/kg
Text: The in-vivo efficacy for antidiabetic activity was done female db/db mice of 10-15 weeks of age.
1. […] 17. The treatment was given oral gavages once daily for 14 days.
as §4

[6] = system: high fat high cholesterol fed Syrian golden hamster; assay: Lipid lowering effects with Rosuvastatin Calcium in HF-HC fructose diet Syrian golden hamsters (study III); conditions: Compound (Ia) 3 mg/kg
Text: as §5
In this experiment, 21 Syrian golden hamsters which were kept on high fat-high cholesterol (HF-HC) fructose diet were divided into 3 treatment groups and one group was on normal diet control which was NIN (National Institute of Nutrition, NIN diet) control, the treatment given was as per Table no. 1. NIN control and HF-HC fructose diet vehicle control groups were treated with vehicle (10% Polyethylene glycol (PEG) 400+90% of 0.5% methyl cellulose) and other three groups with treatment mentioned in Table no. 13. The treatment was given oral gavages once daily for 7 days.
Calculations of the % change in LDL-C levels, HDL-C and LDL-C/HDL-C ratio (Vs HF-HC fructose diet control) were performed using MS Excel.

[7] = Table 28, Compound Ia 0.1 mg/kg p.o., Exenatide 0.1 μg/kg i.p. once daily
[8] = Table 30, Compound Ia 0.1 mg/kg, Glimepiride 2 mg/kg p.o. once daily
[9] = Table 12, Metformin 150 mg/kg p.o.
[10] = HF-HC fructose diet hamsters, 13 days, Compound (Ia) 3 mg/kg, Atorvastatin 0.5 mg/kg
[11] = Table 23, LDL/HDL ratio, Day 13, Compound Ia 3 mg/kg, Atorvastatin 0.5 mg/kg
[12] = HF-HC fructose diet hamsters, 7 days, Rosuvastatin calcium 0.3 mg/kg

CCO[C@@H](Cc1ccc(OCCn2c(C)ccc2-c2ccc(SC)cc2)cc1)C(=O)O [Compound (Ia), Benzenepropanoic acid, α-ethoxy-4-[2-[2-methyl-5-[4-(methylthio)phenyl]-1H -pyrrol-1-yl]ethoxy]-, magnesium salt]
AUC Glucose (db/db mice [1]; Table 29, Compound Ia 0.1 mg/kg p.o., Exenatide 0.1 μg/kg i.p.): 46452.6 mg·min/dL | % improvement in AUC glucose vs control (db/db mice [1]; Table 29 and text, OGTT day 7, Compound Ia 0.1 mg/kg p.o., Exenatide 0.1 μg/kg i.p.): 23.7% | AUC Glucose (db/db mice [1]; Table 31, Compound Ia 0.1 mg/kg, Glimepiride 2 mg/kg p.o.): 46452.6 mg·min/dL | % improvement in AUC glucose vs control (db/db mice [1]; Table 31 and text, OGTT after 7 days of treatment, Compound Ia 0.1 mg/kg, Glimepiride 2 mg/kg p.o.): 23.7% | Serum Glucose (mg/dl) Day 0 (db/db mice [2]; [7]): 420.6 mg/dL | Serum Glucose (mg/dl) Day 6 (db/db mice [2]; [7]): 363.4 mg/dL | % Change Vs control (db/db mice [2]; Table 28, serum glucose day 6 vs vehicle control (i.p. PBS or per oral vehicle), Compound Ia 0.1 mg/kg p.o., Exenatide 0.1 μg/kg i.p.): −24.8% | % Change Day 6 vs Day 0 (db/db mice [2]; Table 28, Compound Ia 0.1 mg/kg p.o., Exenatide 0.1 μg/kg i.p.): −13.4% | Serum Glucose (mg/dl) Day 0 (db/db mice [2]; [8]): 420.6 mg/dL | Serum Glucose (mg/dl) Day 6 (db/db mice [2]; [8]): 363.4 mg/dL | % Change Day 6 vs Day 0 (db/db mice [2]; Table 30, Compound Ia 0.1 mg/kg, Glimepiride 2 mg/kg p.o.): −13.4% | % Change Vs control (db/db mice [2]; Table 30 and text, serum glucose day 6 vs vehicle control, Compound Ia 0.1 mg/kg, Glimepiride 2 mg/kg p.o.): −24.8% | reduction in serum glucose (db/db mice [2]; db/db mice, day 6, Compound Ia 0.1 mg/kg p.o., Exenatide 0.1 μg/kg i.p.): 24.8% | AUC Glucose (db/db mice [3]; Table 10, Sitagliptin 3 mg/kg p.o.): 51757.3 ± 3366.3 mg·min/dL | % improvement in AUC glucose vs control (db/db mice [3]; Table 10 and text, Sitagliptin 3 mg/kg p.o.): 9% and 9.0 ± 5.9% | % improvement in AUC glucose vs control (db/db mice [3]; [9]): 9% | AUC Glucose (db/db mice [3]; [9]): 51757.3 mg·min/dL | reduction in LDL-C [4, 10]: 14.8% | reduction in LDL-C/HDL-C ratio, atherogenic index [4, 10]: does not showed any reduction | reduction in triglyceride [4, 10]: 65.2% | Serum LDL-C (mg/dl) Day 0 ([4]; Table 21, Day 0 (pretreatment), HF-HC fructose diet hamsters, Compound Ia 3 mg/kg, Atorvastatin 0.5 mg/kg oral once daily 13 days): 75.1 mg/dL | LDL-C % Change vs Day 0 ([4]; Table 21, Day 13, Compound Ia 3 mg/kg, Atorvastatin 0.5 mg/kg): 0.1% | Serum LDL-C (mg/dl) Day 13 ([4]; Table 21, Day 13, HF-HC fructose diet hamsters, Compound Ia 3 mg/kg, Atorvastatin 0.5 mg/kg oral once daily 13 days): 73.1 mg/dL | % Change vs HF-HC Fructose Control ([4]; Table 21, LDL-C, Day 13, Compound Ia 3 mg/kg, Atorvastatin 0.5 mg/kg): −14.8% | Serum triglyceride (mg/dl) Day 0 ([4]; Table 22, Day 0 (pretreatment), HF-HC fructose diet hamsters, Compound Ia 3 mg/kg, Atorvastatin 0.5 mg/kg oral once daily 13 days): 418.4 mg/dL | TG % Change vs Day 0 ([4]; Table 22, Day 13, Compound Ia 3 mg/kg, Atorvastatin 0.5 mg/kg): −64.0% | Serum triglyceride (mg/dl) Day 13 ([4]; Table 22, Day 13, HF-HC fructose diet hamsters, Compound Ia 3 mg/kg, Atorvastatin 0.5 mg/kg oral once daily 13 days): 149.5 mg/dL | % Change vs HF-HC Fructose Control ([4]; Table 22, triglyceride, Day 13, Compound Ia 3 mg/kg, Atorvastatin 0.5 mg/kg): −65.2% | LDL/HDL RATIO Day 0 ([4]; Table 23, Day 0 (pretreatment), HF-HC fructose diet hamsters, Compound Ia 3 mg/kg, Atorvastatin 0.5 mg/kg): 0.79 | LDL/HDL RATIO Day 13 ([4]; Table 23, Day 13, HF-HC fructose diet hamsters, Compound Ia 3 mg/kg, Atorvastatin 0.5 mg/kg): 0.82 | % Change vs HF-HC Fructose Control [4, 11]: 8.5% | Change vs Day 0 [4, 11]: 6.4 | Serum Glucose (mg/dl) Day 0 (db/db mice [5]; Table 18, Day 0 (pretreatment), female db/db mice, Compound Ia 0.1 mg/kg, Metformin 100 mg/kg p.o. once daily): 375.4 mg/dL | Serum Glucose (mg/dl) Day 12 (db/db mice [5]; Table 18, Day 12, one hour after dose, non-fasting, Compound Ia 0.1 mg/kg, Metformin 100 mg/kg p.o. once daily): 209.0 mg/dL | % Change Vs control (db/db mice [5]; Table 18, serum glucose day 12 vs vehicle control, Compound Ia 0.1 mg/kg, Metformin 100 mg/kg): −34.3% | % Change Day 12 vs Day 0 (db/db mice [5]; Table 18, serum glucose, Compound Ia 0.1 mg/kg, Metformin 100 mg/kg): −43.8% | reduction in serum glucose (db/db mice [5]; female db/db mice, Compound (Ia) 0.1 mg/kg, Metformin 100 mg/kg): 34.3% | reduction in LDL-C [6, 12]: 9.9% | reduction in LDL-C/HDL-C ratio, atherogenic index [6, 12]: 4.9% | Serum LDL-C (mg/dl) Day 0 ([6]; Table 14, Day 0 (pretreatment), HF-HC fructose diet hamsters, Rosuvastatin calcium 0.3 mg/kg oral once daily 7 days): 114.8 mg/dL | LDL-C % Change vs Day 0 ([6]; Table 14, Day 7, Rosuvastatin calcium 0.3 mg/kg): 9.2% | Serum LDL-C (mg/dl) Day 7 ([6]; Table 14, Day 7, HF-HC fructose diet hamsters, Rosuvastatin calcium 0.3 mg/kg oral once daily 7 days): 123.7 mg/dL | % Change vs HF-HC Fructose Control ([6]; Table 14, LDL-C, Day 7, Rosuvastatin calcium 0.3 mg/kg): −9.9% | Serum HDL-C (mg/dl) Day 0 ([6]; Table 15, Day 0 (pretreatment), HF-HC fructose diet hamsters, Rosuvastatin calcium 0.3 mg/kg oral once daily 7 days): 101.8 mg/dL | HDL-C % Change vs Day 0 ([6]; Table 15, Day 7, Rosuvastatin calcium 0.3 mg/kg): 9.8% | Serum HDL-C (mg/dl) Day 7 ([6]; Table 15, Day 7, HF-HC fructose diet hamsters, Rosuvastatin calcium 0.3 mg/kg oral once daily 7 days): 111.5 mg/dL | Serum LDL-C/HDL-C Ratio Day 0 ([6]; Table 16, Day 0 (pretreatment), HF-HC fructose diet hamsters, Rosuvastatin calcium 0.3 mg/kg): 1.13 | LDL/HDL % Change Vs Day 0 ([6]; Table 16, Day 7, Rosuvastatin calcium 0.3 mg/kg): −0.3% | Serum LDL-C/HDL-C Ratio Day 7 ([6]; Table 16, Day 7, HF-HC fructose diet hamsters, Rosuvastatin calcium 0.3 mg/kg): 1.09 | % Change vs HF-HC Fructose Control ([6]; Table 16, LDL-C/HDL-C ratio, Day 7, Rosuvastatin calcium 0.3 mg/kg): −4.9%
